The nature of data set [1]: Pharmacokinetic evaluation in cynomolgus monkeys. Type of data set: in vivo. To be noted: cynomolgus monkey, plasma, 0.02 mg/kg, single SC 0.02 mpk; for half-life: read-out: Half-life T1/2 (converted); for AUC(0-t): read-out: Integral of the SC concentration AUC0-240 h; for Cmax: read-out: Maximum plasma concentration. How it is done: Pharmacokinetics of the compound in cynomolgus monkeys were assayed.
The pharmacokinetic characteristics of the compound in mammals after a subcutaneous injection were assayed using the standard protocol. In the assay, the candidate compound was formulated into a clear solution and given to cynomolgus monkeys by a single subcutaneous injection (SC, 0.02 mpk). The solvent of the subcutaneous injection was citrate buffer (20 mM, pH=7). Whole blood was collected, and plasma was prepared. Drug concentration was analyzed by LC-MS/MS method, and pharmacokinetic parameters were calculated using Phoenix WinNonlin software.

A short description of data set [2]: Pharmacokinetic evaluation in mice. The data set is classed as in vivo. Conditions: mouse, plasma, 0.048 mg/kg, C57BL/6 mice, single SC 0.048 mpk; for half-life: read-out: Half-life T1/2 (converted); for AUC(0-t): read-out: Integral of the SC concentration AUC0-72 h; for Cmax: read-out: Maximum plasma concentration. The method, then:
Pharmacokinetics of the compound in C57BL/6 mice were assayed.
The pharmacokinetic characteristics of the compound in rodents after a subcutaneous injection were assayed using the standard protocol. In the assay, the candidate compound was formulated into a clear solution and given to mice by a single subcutaneous injection (SC, 0.048 mpk). The solvent of the subcutaneous injection was citrate buffer (20 mM, pH=7). Whole blood was collected, and plasma was prepared. Drug concentration was analyzed by LC-MS/MS method, and pharmacokinetic parameters were calculated using Phoenix WinNonlin software.

The subject of data set [3] is DIO mice. The data set can be described thus: Drug efficacy study in DIO mice (weight loss). Type of data set: in vivo. To be noted: 10 nmol/kg subcutaneous, once every three days. How it is done:
The weight loss effect of the assay compound in DIO mice was studied.
1. After arriving at the facility, the DIO mice were raised in an animal breeding room with strictly controlled environmental conditions. The temperature in the breeding room was maintained at 20 to 24° C., and the humidity was maintained at 30 to 70%. The temperature and humidity in the breeding room were monitored in real time using a thermo-hygrometer, and the temperature and humidity were recorded twice a day (once in the morning and once in the afternoon). The lighting in the animal breeding room was controlled by an electronic timed lighting system. The lights were on for 12 hours and off for 12 hours every day (turned on at 7:00 am and turned off at 19:00 pm). During the assay, the animals were raised in individual cages and toys were provided in each cage. During the assay, the animals had free access to food (growth/breeding feed for rats and mice) and water.
2. The animals in each group were subcutaneously injected with a solvent or an assay compound (10 nmol/kg), respectively. The administration time was 9:30 in the morning. The administration frequency was once every three days, and the administration cycle was 21 days.

Data set [4] has as its system human plasma albumin. Briefly: Plasma protein binding (PPB), human. The data set is classed as in vitro ADME. To be noted: ultracentrifugation. Details: key: NA indicates that the plasma protein binding is too high, and no free drug is detected at a normal plasma protein concentration. The method, then:
The binding degree of the assay compound to human/mouse plasma albumin was studied.
1. Matrix preparation: on the day of the assay, plasma was thawed in cold water and centrifuged at 3220 rpm for 5 min to remove all clots. The pH of the resulting plasma was measured and adjusted to 7.4±0.1 using 1% phosphoric acid or IN sodium hydroxide as needed.
2. Dilution procedure for the assay compound: the assay compound was dissolved in dimethyl sulfoxide (DMSO) to prepare stock solutions with concentrations of 10 mM and 2 mM, respectively. A 40 μM working solution was prepared by diluting 2 μL of stock solution (2 mM) with 98 μL of DMSO. A 400 μM working solution of the control compound was prepared by diluting 10 μL of stock solution with 240 μL of DMSO. The working solution of the compound (5 μL) was mixed well with a blank matrix (995 μL) at a ratio of 1:200 to prepare a loading matrix.
3.1 An equal volume of 30 μL of loading matrix (n=2) was transferred to a sample collection plate to prepare a time 0 (T0) sample for residue determination. […]
3.4 At the end of centrifugation, 30 μL of protein-free samples and 30 μL of T samples were transferred from the second layer of the supernatant (below the top layer) to a new sample collection plate. […] The mixture was centrifuged at 4000 rpm for 20 min and 100 μL of supernatant from each sample was analyzed by LC-MS/MS.

Data set [5] concerns the target T1, GCGR (Homo sapiens, UniProt P47871).
T1 construct: host or cells: HEK293
The data set can be described thus: In vitro agonistic activity on GCGR (cAMP assay). Type of data set: cell-based. To be noted: HEK293 cell line; for Agonistic activity on GCGR Max Activity (%): Max Dose 100 nM. The method, then:
The cell lines were constructed by Shanghai WuXi AppTec.
The compounds to be assayed were serially diluted 4-fold with Bravo to obtain 10 concentrations, with a starting concentration of 30 μM.
1) 100 nL of the compound was transferred to an OptiPlate-384 plate using Echo.
2) The OptiPlate-384 plate was centrifuged at 1000 rpm for 5 seconds.
1) A GLP-1R/GIPR/GCGR cell cryopreservation tube was quickly placed in warm water at 37° C. to thaw.
2) The cell suspension was transferred to a 15 mL centrifuge tube, and gently washed with 10 ml of HBSS.
3) The centrifuge tube was centrifuged at 1000 rpm at room temperature for 1 minute.
4) The supernatant was discarded.
5) The cells at the bottom were gently dispersed and gently washed with 10 ml of HBSS. The cells were centrifuged and sedimented, and finally resuspended with the assay buffer.
6) Vi-cell was used to measure the cell density and viability.
7) The concentration of GLP-1R/GIPR/GCGR cells was diluted to 2.0*105/mL with the assay buffer.
8) […] of the diluted cell suspension was transferred to the OptiPlate-384 plate.
9) The plate was incubated at room temperature for 30 minutes.
1) 10 μL of 800 nM gradient diluted cAMP standard was added into an empty well of the OptiPlate-384 plate.
2) 10 μL of cAMP assay reagent was added.
3) The OptiPlate-384 plate was covered with a TopSeal-A film and incubated at room temperature for 60 minutes.
The TopSeal-A was peeled off and the plate was read on the EnVision.
A general note: Cyclic AMP is a second messenger, typically raised through Gs and lowered through Gi signalling.

The structures appear in SMILES notation.

T1 sequence (P47871 26-477, species assumed): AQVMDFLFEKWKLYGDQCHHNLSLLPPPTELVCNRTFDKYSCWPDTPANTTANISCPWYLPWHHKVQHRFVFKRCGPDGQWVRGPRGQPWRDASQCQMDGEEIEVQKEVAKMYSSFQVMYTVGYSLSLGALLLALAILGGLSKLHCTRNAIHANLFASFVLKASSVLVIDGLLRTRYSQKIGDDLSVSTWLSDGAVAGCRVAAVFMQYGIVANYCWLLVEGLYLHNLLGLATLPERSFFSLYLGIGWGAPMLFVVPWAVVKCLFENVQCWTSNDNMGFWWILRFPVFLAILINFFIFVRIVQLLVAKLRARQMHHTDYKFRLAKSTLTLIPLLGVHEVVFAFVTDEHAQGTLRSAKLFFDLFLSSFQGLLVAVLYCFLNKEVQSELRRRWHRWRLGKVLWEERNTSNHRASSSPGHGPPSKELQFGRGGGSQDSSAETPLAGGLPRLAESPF

Turning to `CC(C)C[C@H](NC(=O)[C@H](CC(C)C)NC(=O)[C@H](Cc1c[nH]c2ccccc12)NC(=O)[C@H](CCC(=O)O)NC(=O)[C@@H](NC(=O)[C@H](Cc1ccccc1)NC(=O)[C@H](CCC(=O)O)NC(=O)[C@@H]1CCCCNC(=O)CN(C(=O)COCCOCCNC(=O)COCCOCCNC(=O)CC[C@H](NC(=O)CCCCCCCCCCCCCCCCCCC(=O)O)C(=O)O)CC(=O)NCCCC[C@H](NC(=O)[C@H](CCC(=O)O)NC(=O)[C@H](CC(=O)O)NC(=O)[C@H](CC(C)C)NC(=O)[C@H](Cc2ccc(O)cc2)NC(=O)[C@H](CCCCN)NC(=O)[C@H](CO)NC(=O)[C@H](Cc2ccc(O)cc2)NC(=O)[C@H](CC(=O)O)NC(=O)[C@H](CO)NC(=O)[C@@H](NC(=O)[C@H](Cc2ccccc2)NC(=O)[C@@H](NC(=O)CNC(=O)[C@H](CCC(N)=O)NC(=O)C(C)(C)NC(=O)[C@@H](N)Cc2c[nH]cn2)[C@@H](C)O)[C@@H](C)O)C(=O)N[C@@H](CCCCN)C(=O)N[C@@H](C)C(=O)N1)C(C)C)C(=O)N[C@@H](CCC(=O)O)C(=O)NCC(=O)NCC(=O)N1CCC[C@H]1C(=O)N[C@@H](CO)C(=O)N[C@@H](CO)C(=O)NCC(N)=O` [WX001], in data set [1], the time to peak (Tmax) worked out at 24 h, the half-life was 93 h, the AUC(0-t) amounted to 5.51 µM·h and the Cmax was found to be 43 nM. Further, in data set [2], the Tmax came to 8 h, the half-life is 21 h, the AUC(0-t) is 1.81 µM·h and the Cmax worked out at 46 nM. Further, in data set [3], the “ΔBody weight % (comparison of the body weight after 21 days with the body weight on day 1)” value is listed as −28.91%. Moreover, the “PPB % unbound (human)” value in data set [4] was “NA/NA”. For the same compound, in data set [5], the EC50 was 0.0267 nM and the “Agonistic activity on GCGR Max Activity (%)” value is reported as 98.93%.
`CC(C)C[C@H](NC(=O)[C@H](CC(C)C)NC(=O)[C@H](Cc1c[nH]c2ccccc12)NC(=O)[C@@H]1CCCCNC(=O)CN(C(=O)COCCOCCNC(=O)COCCOCCNC(=O)CC[C@H](NC(=O)CCCCCCCCCCCCCCCCCCC(=O)O)C(=O)O)CC(=O)NCCCC[C@H](NC(=O)[C@H](C)NC(=O)[C@H](CCCCN)NC(=O)[C@H](CCCCN)NC(=O)[C@H](CCC(=O)O)NC(=O)[C@H](CC(=O)O)NC(=O)[C@H](CC(C)C)NC(=O)[C@H](Cc2ccc(O)cc2)NC(=O)[C@H](CCCCN)NC(=O)[C@H](CO)NC(=O)[C@H](Cc2ccc(O)cc2)NC(=O)[C@H](CC(=O)O)NC(=O)[C@H](CO)NC(=O)[C@@H](NC(=O)[C@H](Cc2ccccc2)NC(=O)[C@@H](NC(=O)CNC(=O)[C@H](CCC(N)=O)NC(=O)C(C)(C)NC(=O)[C@@H](N)Cc2c[nH]cn2)[C@@H](C)O)[C@@H](C)O)C(=O)N[C@@H](CCC(=O)O)C(=O)N[C@@H](Cc2ccccc2)C(=O)N[C@@H](C(C)C)C(=O)N1)C(=O)N[C@@H](CCC(=O)O)C(=O)NCC(=O)NCC(=O)N1CCC[C@H]1C(=O)N[C@@H](CO)C(=O)N[C@@H](CO)C(=O)NCC(N)=O` [WX004]: in data set [1], the Tmax amounted to 32 h, the half-life was 67 h, the AUC(0-t) was 5.72 µM·h and the Cmax was found to be 48 nM. In data set [2], the Tmax worked out at 12 h, the half-life was 22 h, the AUC(0-t) was 1.16 µM·h and the Cmax was 36 nM. The “ΔBody weight % (comparison of the body weight after 21 days with the body weight on day 1)” value in data set [3] is on record as −31.89%. In data set [4], the “PPB % unbound (human)” value is “NA/NA”. Moreover, in data set [5], the EC50 was determined as 0.0531 nM and the “Agonistic activity on GCGR Max Activity (%)” value is reported as 68.62%.

A word on the Tmax: it is the time from dosing to the highest level. The term EC50 denotes the concentration needed to bring the measured effect to its halfway point.

The values are drawn from US20250326815A1, “STAPLE-CONTAINING POLYPEPTIDES AND APPLICATION THEREOF” (Soter Biopharma Pte. Ltd., priority 2021, published 2025).
